Patent US20230225991A1, “COMPOUNDS FOR USE IN THE TREATMENT OF ACUTE INTERMITTENT PORPHYRIA” (VESTLANDETS INNOVASJONSSELSKAP AS, priority 2019, published 2023)

How the values were obtained:
[1] = molecular target: T1, WT-HMBS (Homo sapiens, UniProt P08397); assay: Enzymatic activity assay of recombinant HMBS, standard conditions; assay type: biochemical; conditions: 100 μM PBG at 37° C., 84 μM compound, 2% DMSO; relative to DMSO control
T1 construct: Full-length HMBS was cloned into pET-28a(+)-TEV vector and transformed into BL21 (DE3) cells for expression; 6xHis (N, cleaved yes); TEV protease cleavage site (N, cleaved yes); made in house; host or cells: E. coli BL21 (DE3)
T1 sequence (P08397 1-361): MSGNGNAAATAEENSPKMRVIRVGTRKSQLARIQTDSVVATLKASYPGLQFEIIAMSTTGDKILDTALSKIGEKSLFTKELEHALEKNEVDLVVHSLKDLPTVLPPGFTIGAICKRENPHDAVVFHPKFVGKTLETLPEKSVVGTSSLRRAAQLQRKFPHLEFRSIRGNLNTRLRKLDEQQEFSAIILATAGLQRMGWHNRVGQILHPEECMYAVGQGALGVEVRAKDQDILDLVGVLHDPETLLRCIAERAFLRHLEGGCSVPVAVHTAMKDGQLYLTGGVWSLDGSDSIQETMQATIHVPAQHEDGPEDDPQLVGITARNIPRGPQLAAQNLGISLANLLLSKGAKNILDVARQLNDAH
Protocol: The standard enzymatic activity of recombinant WT-HMBS was assayed at 37° C. as reported previously (Bustad et al., Bioscience reports, 2013; 33(4)). Compounds were added at a concentration of 84 μM. Absorbance of uroporphyrinogen I was determined at 405 nm. The enzyme activity in the presence of the compounds was normalized relative to DMSO-control (relative activity).
An enzymatic assay was performed to investigate the effect of compound BG-1 on the activity and conformational stability of HMBS. HMBS activity of the purified enzyme was measured in the absence and presence of compound BG-1 (at 84 μM) at standard conditions (37° C.) but also after pre-incubation at 70° C. for 20 min based on the high thermal stability of WT-HMBS.

[2] = molecular target: T2, HMBS (Homo sapiens, UniProt P08397); assay: Octet RED96 binding (S0.5); parameters: Full-length HMBS was cloned into pET-28a(+)-TEV vector and transformed into BL21 (DE3) cells for expression; 6xHis (N, cleaved yes); TEV protease cleavage site (N, cleaved yes); made in house; host or cells: E. coli BL21 (DE3); conditions: sigmoidal binding isotherm, SSA biosensors, biotinylated HMBS; read-out: S0.5 (concentration for half-maximal binding), Octet
T2 sequence (P08397 1-361): T1 sequence (P08397 1-361)
Protocol: The enzyme used in the binding assays using the Octet RED96 was expressed using a new construct with an N-terminal 6×HIS affinity tag and a TEV protease cleavage site. Full-length HMBS was cloned into pET-28a(+)-TEV vector and transformed into BL21 (DE3) cells for expression. Expression was done in Terrific Broth medium with IPTG induction. Cells were cultured 16 h at 20° C. with 220 rpm shaking. After harvesting, the cells were lysed with sonication, and standard affinity purification was performed using Ni-NTA affinity matrix. Protein was eluted with 20 mM HEPES, 150 mM NaCl (gel filtration buffer), pH 8 supplemented with 400 mM imidazole. […]
Octet RED96 system (ForteBio Biologics by Molecular Devices, LLC., San Jose, Calif.) with super streptavidin (SSA) biosensors was used as an additional method for determining the Kd-value for the binding of the compounds. […] Triplicates for the concentration series of the compounds were measured, and double reference subtraction was applied for data analysis based on the steady-state kinetics with equilibrium binding signal (Req) using ForteBio Data analysis 9.0. […]
The binding of compounds BG-1 and BG-2 to HMBS was analyzed by surface plasmon resonance (SPR) and response units from concentration-dependent steady state measurements were analyzed assuming a 1:1 binding model. […]

[3] = molecular target: T1, WT-HMBS; assay: Surface plasmon resonance (SPR), HMBS immobilized to sensor chip; conditions: sigmoidal fitting of binding isotherm, 25° C., 0-200 μM compound; read-out: S0.5 (concentration for half-maximal binding), SPR
Protocol: Surface plasmon resonance experiments for the estimation of the concentration of compound at half-maximal binding (S0.5) were performed using a Biacore T200 (GE Healthcare) instrument at 25° C. 150 μg/ml WT-HMBS in 10 mM sodium acetate pH 4.5 was immobilized onto a CM5-S sensor chip through amine-coupling chemistry and PBS containing 0.05% surfactant P20 as running buffer, reaching immobilization levels ˜15,000. The baseline was equilibrated for 1-2 h, before the compounds were assayed in a concentration-dependent manner (0-200 μM), using running buffer with 5% DMSO and 30 μl/min flow rate. Contact and dissociation time was 60 s, with a final wash after 50% DMSO injection. Blank immobilization, solvent correction and negative control (assay buffer) were included for the analysis of the sensorgrams using the Biacore T200 Evaluation software v2.0. The allosteric sigmoidal curve fitting was performed using GraphPad Prism.
The binding of compounds BG-1 and BG-2 to HMBS was analyzed by surface plasmon resonance (SPR) and response units from concentration-dependent steady state measurements were analyzed assuming a 1:1 binding model. […] The interaction between compound BG-1 and HMBS was therefore further studied with Octet RED96 system with super streptavidin (SSA) biosensors. […]

O=Cc1cc(Cc2ccccc2Cl)cc([N+](=O)[O-])c1O [BG-1]
Relative activity, standard [1]: 0.98 ± 0.06 | Kd [2]: 83 ± 7 µM

O=C(c1ccccc1)c1ccc(Cl)c([N+](=O)[O-])c1 [BG-2]
Kd [3]: 63 ± 3 µM
